Measurements reported in US9456604B2, “Herbicide composition” (Syngenta Crop Protection, LLC, priority 2008, dated 2016).

What was measured:
Assay type in all cases: in vivo
corn = experiment: Greenhouse trial, effect of pH on selectivity: four corn varieties; conditions: for % phytotoxicity observed, Corn "Cecilia" 8 DAA / % phytotoxicity observed, Corn "Lorenzo" 8 DAA / % phytotoxicity observed, Corn "Marista" 8 DAA / % phytotoxicity observed, Corn "Blizzard" 28 DAA / % phytotoxicity observed, Corn "Cecilia" 28 DAA / % phytotoxicity observed, Corn "Lorenzo" 28 DAA / % phytotoxicity observed, Corn "Marista" 28 DAA / % phytotoxicity observed, Corn "Blizzard" 8 DAA: early POST, 200 l/ha
Description: (§1) A greenhouse trial was conducted to look at the effect of pH on the selectivity of an emulsifiable concentrate composition comprising compound B (compound of formula wherein R^1=methoxy-propyl and R^2═CHF2). Applications were made early POST using four corn varieties and eight weeds (Broad leaf weeds: Amaranthus retroflexus (AMARE), Ipomoea hederacea (IPOHE), Polygonum convolvulus (POLCO) Grasses: Digitaria sanuinalis (DIGSA), Echinochloa crus-galli (ECHCG), Eriochloa villosa (ERBVI), Panicum dichotomiflorum (PANDI), Setaria viridus (SETVI)). The spray volume applied was 200 l/ha. Phytotoxicity evaluations were made 8 days after application (DAA) and/or 28 DAA. Results are provided as % phytotoxicity observed wherein 0=no visible phytotoxicity to 100=complete phytotoxicity.

[1] = test system: Echinochloa crus-galli (ECHCG); experiment: Greenhouse trial, effect of pH on selectivity: weed; conditions: early POST, 200 l/ha
Description: as §1

[2] = test system: Polygonum convolvulus (POLCO); experiment: as above; conditions: early POST, 200 l/ha
Description: as §1

[3] = test system: Eriochloa villosa (ERBVI); experiment: as above; conditions: early POST, 200 l/ha
Description: as §1

[4] = test system: Digitaria sanuinalis (DIGSA); experiment: as above; conditions: early POST, 200 l/ha
Description: as §1

[5] = test system: Amaranthus retroflexus (AMARE); experiment: as above; conditions: early POST, 200 l/ha
Description: as §1

Setaria viridus (SETVI) = experiment: as above; conditions: early POST, 200 l/ha
Description: as §1

[6] = test system: Ipomoea hederacea (IPOHE); experiment: as above; conditions: early POST, 200 l/ha
Description: as §1

[7] = test system: Panicum dichotomiflorum (PANDI); experiment: as above; conditions: early POST, 200 l/ha
Description: as §1

COCCCc1nc(C(F)F)ccc1C(=O)C1C(=O)C2CCC(C2)C1=O (stereo not drawn) [Compound B]
% phytotoxicity observed, Corn "Cecilia" 8 DAA (corn; 100 g ai/ha, pH 3, 8 DAA): 5% | % phytotoxicity observed, Corn "Lorenzo" 8 DAA (corn; 100 g ai/ha, pH 3, 8 DAA): 20% | % phytotoxicity observed, Corn "Marista" 8 DAA (corn; 100 g ai/ha, pH 3, 8 DAA): 5% | % phytotoxicity observed, Corn "Blizzard" 28 DAA (corn; 100 g ai/ha, pH 3, 28 DAA): 10% | % phytotoxicity observed, Corn "Cecilia" 28 DAA (corn; 100 g ai/ha, pH 3, 28 DAA): 10% | % phytotoxicity observed, Corn "Lorenzo" 28 DAA (corn; 100 g ai/ha, pH 3, 28 DAA): 25% | % phytotoxicity observed, Corn "Marista" 28 DAA (corn; 100 g ai/ha, pH 3, 28 DAA): 5% | % phytotoxicity observed, Corn "Cecilia" 8 DAA (corn; 100 g ai/ha, pH 8, 8 DAA): 5% | % phytotoxicity observed, Corn "Lorenzo" 8 DAA (corn; 100 g ai/ha, pH 8, 8 DAA): 20% | % phytotoxicity observed, Corn "Marista" 8 DAA (corn; 100 g ai/ha, pH 8, 8 DAA): 5% | % phytotoxicity observed, Corn "Blizzard" 28 DAA (corn; 100 g ai/ha, pH 8, 28 DAA): 10% | % phytotoxicity observed, Corn "Cecilia" 28 DAA (corn; 100 g ai/ha, pH 8, 28 DAA): 10% | % phytotoxicity observed, Corn "Lorenzo" 28 DAA (corn; 100 g ai/ha, pH 8, 28 DAA): 20% | % phytotoxicity observed, Corn "Marista" 28 DAA (corn; 100 g ai/ha, pH 8, 28 DAA): 5% | % phytotoxicity observed, Corn "Blizzard" 8 DAA (corn; 200 g ai/ha, pH 3, 8 DAA): 25% | % phytotoxicity observed, Corn "Cecilia" 8 DAA (corn; 200 g ai/ha, pH 3, 8 DAA): 20% | % phytotoxicity observed, Corn "Lorenzo" 8 DAA (corn; 200 g ai/ha, pH 3, 8 DAA): 30% | % phytotoxicity observed, Corn "Marista" 8 DAA (corn; 200 g ai/ha, pH 3, 8 DAA): 30% | % phytotoxicity observed, Corn "Blizzard" 28 DAA (corn; 200 g ai/ha, pH 3, 28 DAA): 20% | % phytotoxicity observed, Corn "Cecilia" 28 DAA (corn; 200 g ai/ha, pH 3, 28 DAA): 20% | % phytotoxicity observed, Corn "Lorenzo" 28 DAA (corn; 200 g ai/ha, pH 3, 28 DAA): 30% | % phytotoxicity observed, Corn "Marista" 28 DAA (corn; 200 g ai/ha, pH 3, 28 DAA): 15% | % phytotoxicity observed, Corn "Blizzard" 8 DAA (corn; 200 g ai/ha, pH 8, 8 DAA): 20% | % phytotoxicity observed, Corn "Cecilia" 8 DAA (corn; 200 g ai/ha, pH 8, 8 DAA): 20% | % phytotoxicity observed, Corn "Lorenzo" 8 DAA (corn; 200 g ai/ha, pH 8, 8 DAA): 25% | % phytotoxicity observed, Corn "Marista" 8 DAA (corn; 200 g ai/ha, pH 8, 8 DAA): 5% | % phytotoxicity observed, Corn "Blizzard" 28 DAA (corn; 200 g ai/ha, pH 8, 28 DAA): 10% | % phytotoxicity observed, Corn "Cecilia" 28 DAA (corn; 200 g ai/ha, pH 8, 28 DAA): 10% | % phytotoxicity observed, Corn "Lorenzo" 28 DAA (corn; 200 g ai/ha, pH 8, 28 DAA): 25% | % phytotoxicity observed, Corn "Marista" 28 DAA (corn; 200 g ai/ha, pH 8, 28 DAA): 5% | phytotoxicity observed in corn when applied at pH 8 rather than pH 3 (corn; pH 8 versus pH 3, greenhouse trial, Table C): significantly decreased | % phytotoxicity observed, ECHCG 8 DAA ([1]; 100 g ai/ha, pH 3, 8 DAA): 80% | % phytotoxicity observed, ECHCG 8 DAA ([1]; 100 g ai/ha, pH 8, 8 DAA): 95% | % phytotoxicity observed, ECHCG 8 DAA ([1]; 200 g ai/ha, pH 3, 8 DAA): 98% | % phytotoxicity observed, ECHCG 8 DAA ([1]; 200 g ai/ha, pH 8, 8 DAA): 95% | % phytotoxicity observed, POLCO 8 DAA ([2]; 100 g ai/ha, pH 3, 8 DAA): 80% | % phytotoxicity observed, POLCO 8 DAA ([2]; 100 g ai/ha, pH 8, 8 DAA): 70% | % phytotoxicity observed, POLCO 8 DAA ([2]; 200 g ai/ha, pH 3, 8 DAA): 95% | % phytotoxicity observed, POLCO 8 DAA ([2]; 200 g ai/ha, pH 8, 8 DAA): 90% | % phytotoxicity observed, ERBVI 8 DAA ([3]; 100 g ai/ha, pH 3, 8 DAA): 80% | % phytotoxicity observed, ERBVI 8 DAA ([3]; 100 g ai/ha, pH 8, 8 DAA): 98% | % phytotoxicity observed, ERBVI 8 DAA ([3]; 200 g ai/ha, pH 3, 8 DAA): 90% | % phytotoxicity observed, ERBVI 8 DAA ([3]; 200 g ai/ha, pH 8, 8 DAA): 98% | % phytotoxicity observed, DIGSA 8 DAA ([4]; 100 g ai/ha, pH 3, 8 DAA): 85% | % phytotoxicity observed, DIGSA 8 DAA ([4]; 100 g ai/ha, pH 8, 8 DAA): 85% | % phytotoxicity observed, DIGSA 8 DAA ([4]; 200 g ai/ha, pH 3, 8 DAA): 100% | % phytotoxicity observed, DIGSA 8 DAA ([4]; 200 g ai/ha, pH 8, 8 DAA): 95% | % phytotoxicity observed, AMARE 8 DAA ([5]; 100 g ai/ha, pH 3, 8 DAA): 98% | % phytotoxicity observed, AMARE 8 DAA ([5]; 100 g ai/ha, pH 8, 8 DAA): 95% | % phytotoxicity observed, AMARE 8 DAA ([5]; 200 g ai/ha, pH 3, 8 DAA): 100% | % phytotoxicity observed, AMARE 8 DAA ([5]; 200 g ai/ha, pH 8, 8 DAA): 98% | % phytotoxicity observed, SETVI 8 DAA (Setaria viridus (SETVI); 100 g ai/ha, pH 3, 8 DAA): 90% | % phytotoxicity observed, SETVI 8 DAA (Setaria viridus (SETVI); 100 g ai/ha, pH 8, 8 DAA): 90% | % phytotoxicity observed, SETVI 8 DAA (Setaria viridus (SETVI); 200 g ai/ha, pH 3, 8 DAA): 100% | % phytotoxicity observed, SETVI 8 DAA (Setaria viridus (SETVI); 200 g ai/ha, pH 8, 8 DAA): 98% | % phytotoxicity observed, IPOHE 8 DAA ([6]; 100 g ai/ha, pH 3, 8 DAA): 80% | % phytotoxicity observed, IPOHE 8 DAA ([6]; 100 g ai/ha, pH 8, 8 DAA): 85% | % phytotoxicity observed, IPOHE 8 DAA ([6]; 200 g ai/ha, pH 3, 8 DAA): 95% | % phytotoxicity observed, IPOHE 8 DAA ([6]; 200 g ai/ha, pH 8, 8 DAA): 90% | % phytotoxicity observed, PANDI 8 DAA ([7]; 100 g ai/ha, pH 3, 8 DAA): 98% | % phytotoxicity observed, PANDI 8 DAA ([7]; 100 g ai/ha, pH 8, 8 DAA): 98% | % phytotoxicity observed, PANDI 8 DAA ([7]; 200 g ai/ha, pH 3, 8 DAA): 100% | % phytotoxicity observed, PANDI 8 DAA ([7]; 200 g ai/ha, pH 8, 8 DAA): 100%
